The target in this assay is T1, MtbPurT (Mycobacterium tuberculosis, UniProt P95197).
T1 construct: gene purT
The experiment in a line: biochemical.

The structures appear in SMILES notation.

T1 sequence (P95197 entry or part of it): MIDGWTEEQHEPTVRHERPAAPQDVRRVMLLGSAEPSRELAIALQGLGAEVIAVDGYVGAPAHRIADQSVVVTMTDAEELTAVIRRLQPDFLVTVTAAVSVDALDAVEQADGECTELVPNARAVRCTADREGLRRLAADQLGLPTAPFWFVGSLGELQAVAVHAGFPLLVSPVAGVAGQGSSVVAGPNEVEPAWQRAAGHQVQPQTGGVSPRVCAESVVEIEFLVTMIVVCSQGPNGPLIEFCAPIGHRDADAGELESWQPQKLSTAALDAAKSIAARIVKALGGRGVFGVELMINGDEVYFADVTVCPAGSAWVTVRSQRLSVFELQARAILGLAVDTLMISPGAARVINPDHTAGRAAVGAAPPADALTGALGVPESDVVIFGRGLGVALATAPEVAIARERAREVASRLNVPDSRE

One may read the Kd as the constant that tells how readily two partners part at equilibrium. `Nc1ncnc2c1ncn2[C@@H]1O[C@H](CO[P@](=O)(O)O[P@](=O)(O)O[P@@](=O)(O)S)[C@@H](O)[C@H]1O` [ATPγS]: binding was put at a Kd of 207 ± 8.02 µM.
